pIC50: −log10 of the molar value.
target: T1, HNE (human neutrophil elastase) (Homo sapiens, UniProt P08246); assay: Elastase enzyme in-vitro inhibition assay; assay type: biochemical; settings: HNE 20 nM, 15 min incubation at room temperature, substrate MeOSuc-AAPV-AMC 100 μM, PBS buffer
T1 construct: purchased Elastin Products (Owensville, Mo., USA) SE563
T1 sequence (P08246 30-267): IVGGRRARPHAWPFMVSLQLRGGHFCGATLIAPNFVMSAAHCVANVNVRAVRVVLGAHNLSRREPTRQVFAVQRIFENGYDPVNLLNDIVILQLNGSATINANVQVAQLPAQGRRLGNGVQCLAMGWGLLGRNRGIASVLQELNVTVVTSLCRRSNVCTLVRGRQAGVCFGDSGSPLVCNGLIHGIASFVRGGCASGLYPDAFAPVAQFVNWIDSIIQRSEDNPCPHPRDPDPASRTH
Description: HNE were purchased from Elastin Products (Owensville, Mo., USA) with catalog number SE563. Fixed concentrations of HNE (20 nM) were incubated with various concentrations of inhibitors in PBS buffer in opaque 96-well plates. After 15 min incubation at room temperature, the corresponding fluorescent substrates MeOSuc-AAPV-AMC (Merck Millipore) were added to each well at final concentration 100 μM. Fluorescence was monitored on a Molecular Devices Spectramax fluorescence plate reader at 460 nm with excitation at 380 nm for 30 min. Residual enzyme activity was calculated using the slope of fluorescence increase in the first 10 min. Percentage of enzyme inhibition was plotted using GraphPad Prism 6 software (GraphPad Prism, La Jolla, Calif., USA). The IC50 value and Ki value was calculated using the Morrison tight-binding equation provided by the software.

Structure (SMILES)	pIC50
Cc1c([S+]([O-])c2ccc(C#N)cc2)cc(C(=O)NCCOCCOCCNC(=O)C(=O)NCCOCCOCCNC(=O)c2cc([S+]([O-])c3ccc(C#N)cc3)c(C)n(-c3cccc(C(F)(F)F)c3)c2=O)c(=O)n1-c1cccc(C(F)(F)F)c1 (centres unmarked) [Compound 19]	> 6.82
CC(C)C(NC(=O)[C@@H]1CCCN1C(=O)[C@@H](NC(=O)c1ccc(C(=O)NCCOCCOCCNC(=O)NCCCCNC(=O)NCCOCCOCCNC(=O)c2ccc(C(=O)N[C@H](C(=O)N3CCC[C@H]3C(=O)NC(C(=O)C(F)(F)F)C(C)C)C(C)C)cc2)cc1)C(C)C)C(=O)C(F)(F)F (some centres unmarked) [Compound 1]	> 6.82
Cc1c(-c2ccnn2-c2ccc(C#N)cc2)cc(C(=O)NCCOCCOCCOCCOCCNC(=O)NCCCCNC(=O)NCCOCCOCCOCCOCCNC(=O)c2cc(-c3ccnn3-c3ccc(C#N)cc3)c(C)n(-c3cccc(C(F)(F)F)c3)c2=O)c(=O)n1-c1cccc(C(F)(F)F)c1 [Compound 4]	> 6.82
Cc1c([S+]([O-])c2ccc(C#N)cc2)cc(C(=O)NCCOCCOCCOCCOCCNC(=O)CCC(=O)NCCOCCOCCOCCOCCNC(=O)c2cc([S+]([O-])c3ccc(C#N)cc3)c(C)n(-c3cccc(C(F)(F)F)c3)c2=O)c(=O)n1-c1cccc(C(F)(F)F)c1 (centres unmarked) [Compound 16]	> 6.82
Cc1c(-c2ccnn2-c2ccc(C#N)cc2)cc(C(=O)NCCOCCOCCOCCOCCNC(=O)NCCOCCOCCOCCOCCNC(=O)c2cc(-c3ccnn3-c3ccc(C#N)cc3)c(C)n(-c3cccc(C(F)(F)F)c3)c2=O)c(=O)n1-c1cccc(C(F)(F)F)c1 [Compound 6]	> 6.82
Cc1c(-c2ccnn2C)cc(C(=O)NCCOCCOCCNC(=O)NCCCCNC(=O)NCCOCCOCCNC(=O)c2cc(-c3ccnn3C)c(C)n(-c3cccc(C(F)(F)F)c3)c2=O)c(=O)n1-c1cccc(C(F)(F)F)c1 [Compound 2]	6.00 to 6.82
Cc1c([S+]([O-])c2ccc(C#N)cc2)cc(C(=O)NCCOCCOCCNC(=O)NCCCCNC(=O)NCCOCCOCCNC(=O)c2cc([S+]([O-])c3ccc(C#N)cc3)c(C)n(-c3cccc(C(F)(F)F)c3)c2=O)c(=O)n1-c1cccc(C(F)(F)F)c1 (centres unmarked) [Compound 20]	6.00 to 6.82
Cc1c(-c2ccnn2-c2ccc(C#N)cc2)cc(C(=O)NCCOCCOCCOCCNC(=O)NCCCCNC(=O)NCCOCCOCCOCCNC(=O)c2cc(-c3ccnn3-c3ccc(C#N)cc3)c(C)n(-c3cccc(C(F)(F)F)c3)c2=O)c(=O)n1-c1cccc(C(F)(F)F)c1 [Compound 11]	6.00 to 6.82
Cc1c([S+]([O-])c2ccc(C#N)cc2)cc(C(=O)NCCOCCOCCOCCNC(=O)NCCCCNC(=O)NCCOCCOCCOCCNC(=O)c2cc([S+]([O-])c3ccc(C#N)cc3)c(C)n(-c3cccc(C(F)(F)F)c3)c2=O)c(=O)n1-c1cccc(C(F)(F)F)c1 (centres unmarked) [Compound 17]	6.00 to 6.82
Cc1c([S+]([O-])c2ccc(C#N)cc2)cc(C(=O)NCCOCCOCCOCCOCCNC(=O)NCCCCNC(=O)NCCOCCOCCOCCOCCNC(=O)c2cc([S+]([O-])c3ccc(C#N)cc3)c(C)n(-c3cccc(C(F)(F)F)c3)c2=O)c(=O)n1-c1cccc(C(F)(F)F)c1 (centres unmarked) [Compound 15]	> 6.82
Cc1c([S+]([O-])c2ccc(C#N)cc2)cc(C(=O)NCCOCCOCCOCCNC(=O)CCC(=O)NCCOCCOCCOCCNC(=O)c2cc([S+]([O-])c3ccc(C#N)cc3)c(C)n(-c3cccc(C(F)(F)F)c3)c2=O)c(=O)n1-c1cccc(C(F)(F)F)c1 (centres unmarked) [Compound 18]	> 6.82
Cc1c(-c2ccnn2-c2ccc(C#N)cc2)cc(C(=O)NCCOCCOCCOCCOCCNC(=O)CCC(=O)NCCOCCOCCOCCOCCNC(=O)c2cc(-c3ccnn3-c3ccc(C#N)cc3)c(C)n(-c3cccc(C(F)(F)F)c3)c2=O)c(=O)n1-c1cccc(C(F)(F)F)c1 [Compound 5]	> 6.82
Cc1c(-c2ccnn2-c2ccc(C#N)cc2)cc(C(=O)NCCOCCOCCOCCNC(=O)CCC(=O)NCCOCCOCCOCCNC(=O)c2cc(-c3ccnn3-c3ccc(C#N)cc3)c(C)n(-c3cccc(C(F)(F)F)c3)c2=O)c(=O)n1-c1cccc(C(F)(F)F)c1 [Compound 12]	> 6.82

Now from value to compound:

pIC50	Structure (SMILES)
> 6.82	Cc1c(-c2ccnn2-c2ccc(C#N)cc2)cc(C(=O)NCCOCCOCCNC(=O)NCCOCCOCCNC(=O)c2cc(-c3ccnn3-c3ccc(C#N)cc3)c(C)n(-c3cccc(C(F)(F)F)c3)c2=O)c(=O)n1-c1cccc(C(F)(F)F)c1 [Compound 3]
> 6.82	Cc1c(-c2ccnn2-c2ccc(C#N)cc2)cc(C(=O)NCCOCCOCCNC(=O)NCCCCNC(=O)NCCOCCOCCNC(=O)c2cc(-c3ccnn3-c3ccc(C#N)cc3)c(C)n(-c3cccc(C(F)(F)F)c3)c2=O)c(=O)n1-c1cccc(C(F)(F)F)c1 [Compound 14]
> 6.82	Cc1c(-c2ccnn2-c2ccc(C#N)cc2)cc(C(=O)NCCOCCOCCOCCNC(=O)C(=O)NCCOCCOCCOCCNC(=O)c2cc(-c3ccnn3-c3ccc(C#N)cc3)c(C)n(-c3cccc(C(F)(F)F)c3)c2=O)c(=O)n1-c1cccc(C(F)(F)F)c1 [Compound 13]
6.00 to 6.82	Cc1c(-c2ccnn2-c2ccc(C#N)cc2)cc(C(=O)NCCOCCOCCOCCOCCNC(=O)C(=O)NCCOCCOCCOCCOCCNC(=O)c2cc(-c3ccnn3-c3ccc(C#N)cc3)c(C)n(-c3cccc(C(F)(F)F)c3)c2=O)c(=O)n1-c1cccc(C(F)(F)F)c1 [Compound 7]
> 6.82	Cc1c(-c2ccnn2-c2ccc(C#N)cc2)cc(C(=O)NCCOCCOCCNC(=O)CCC(=O)NCCOCCOCCNC(=O)c2cc(-c3ccnn3-c3ccc(C#N)cc3)c(C)n(-c3cccc(C(F)(F)F)c3)c2=O)c(=O)n1-c1cccc(C(F)(F)F)c1 [Compound 8]
> 6.82	Cc1c(-c2ccnn2-c2ccc(C#N)cc2)cc(C(=O)NCCOCCOCCOCCNC(=O)NCCOCCOCCOCCNC(=O)c2cc(-c3ccnn3-c3ccc(C#N)cc3)c(C)n(-c3cccc(C(F)(F)F)c3)c2=O)c(=O)n1-c1cccc(C(F)(F)F)c1 [Compound 10]
> 6.82	Cc1c(-c2ccnn2-c2ccc(C#N)cc2)cc(C(=O)NCCOCCOCCNC(=O)C(=O)NCCOCCOCCNC(=O)c2cc(-c3ccnn3-c3ccc(C#N)cc3)c(C)n(-c3cccc(C(F)(F)F)c3)c2=O)c(=O)n1-c1cccc(C(F)(F)F)c1 [Compound 9]
